Assay results: patent US20130117887A1, “Herbicide resistant Camelina Sativa” (Agragen Inc, priority 2010, published 2013)

What was measured:
[1] = system: non-transgenic seedlings of C. sativa cv. Blane Creek (wild type); assay: Seedling herbicide assay, highest survival concentration, non-transgenic control; format: in vivo, Camelina sativa; conditions: for Highest surviving concentration: seedlings one week on MS agar
From the text: (§1) Seedlings of the developed transgenic lines of Camelina sativa, cultivars Blane Creek and Calena second (T1) and fourth (T3) generations were exposed to various concentration of three herbicides: imidazolinone (IMI), chlorsulfuron (CSU) and metsulfuron (MSU). Resistance of the transgenic lines was compared to control non-transgenic seedlings of C. sativa cv. Blane Creek.
(§2) Seeds were sterilized in 2% Na-hypocloride and placed on wet filter paper in sterile conditions to allow germination. On the next day well-germinated seedlings were transferred on Petri dishes containing MS (Murasige-Scoog) 0.7% agar (without sucrose or hormones). Each dish contained one from the three herbicides in particular concentration (0.0001, 0.001, 0.01, 0.1, 1.0, 10, 100 mg/l). After one week of cultivation in vitro (+25° C./+18° C.; light/dark) the seedlings were photographed (as shown on the FIGS. 16A-16F). The highest survival concentration was found for each transgenic line and for each herbicide and compared to the non-transgenic control.

[2] = system: transgenic Camelina sativa lines bearing A122T mutated ALS gene; assay: Seedling herbicide assay, transgenic lines bearing A-mutated (A122T) ALS gene; format: in vivo; conditions: for Effect as compared to control / Highest surviving concentration: T1, A122T
Procedure: Calena, as well as A9.1 (VK14A9.1) and A9.2 (VK14A9.4.2) of the second generation (T1) Camelina sativa v. Blane Creek. The seedlings were grown one week on the various concentrations of herbicides MSU, CSU and IMI. The concentrations are shown in mg/l. Control plate has no herbicide in the grown media.
as §1, §2

[3] = system: transgenic Camelina sativa lines bearing P197S mutated ALS gene; assay: Seedling herbicide assay, transgenic lines bearing P-mutated (P197S) ALS gene; format: in vivo; conditions: for Effect as compared to control / Highest surviving concentration: T1, P197S
Procedure: Calena and A 10 (VK14A10.16) of the second generation (T1) Camelina sativa c. Blane Creek. The seedlings were grown one week on various concentrations of herbicides MSU, CSU and IMI. The concentrations are shown in mg/l.
as §1, §2

[4] = system: transgenic Camelina sativa lines bearing W574L mutated ALS gene; assay: Seedling herbicide assay, transgenic lines bearing W-mutated (W574L) ALS gene; format: in vivo; conditions: for Effect as compared to control / Highest surviving concentration: Blane Creek
Procedure: Blane Creek and ALS23.3 (VK10A2.3) of the […] (T3) of Camelina sativa v. Blane Creek. The seedlings were grown one week on various concentrations of herbicides MSU, CSU and IMI. The concentrations are shown in mg/l. Control plate has no herbicide in the grown media.
as §1, §2

[5] = system: transgenic Camelina sativa lines bearing P197S-W574L mutated ALS gene; assay: Seedling herbicide assay, transgenic lines bearing double (PW) mutated ALS gene; format: in vivo; conditions: for Effect as compared to control / Highest surviving concentration: Blane Creek, T3, P197S-W574L
Procedure: Blane Creek. The seedlings were grown one week on the various concentrations of herbicides MSU, CSU and IMI. The concentrations are shown in mg/l. Control plate has no herbicide in the growth media.
as §1, §2

[6] = system: transgenic Camelina sativa lines bearing A122T-P197S-W574L mutated ALS gene; assay: Seedling herbicide assay, transgenic lines bearing triple (APW) mutated ALS gene; format: in vivo; conditions: Blane Creek, T3, A122T-P197S-W574L
Procedure: Blane Creek. The seedlings were grown one week on various concentrations of herbicides MSU, CSU and IMI. The concentrations are shown in mg/l. Control plate has no herbicide in the grown media.
as §1, §2

[7] = system: transgenic C. sativa cv. Celine lines VK6-A1-No24 and VK6-A1-No26 (35S promoter, ALS W574 mutant); assay: In vitro leaf segment test, transgenic lines; format: cell-based, Camelina sativa; conditions: media with 0.001, 0.01, 0.1, 1.0 mg/l herbicide, FIG. 13
From the text: (§3) FIG. 13 In vitro leaf segment test of two transgenic C. sativa cv. Celine lines VK6-A1-No24 (shown as 24 on Petri dishes) and VK6-Al-No26 (shown as 26 on Petri dishes). As a control, leaf segments of herbicide resistant natural mutant of Camelina microcarpa (C.m.) and leaf segments of susceptible C. sativa (C.s.) were used. Leaf segments of transgenic plants are resistant to the herbicides, while non-transgenic Camelina sativa is susceptible. The media in Petri dishes contains herbicides in various concentrations from 0 mg/l in control plate to 0.001, 0.01, 0.1, 1.0 mg/l of IMI, MSU and CSU.
(§4) Celine lines VK6-A1-No24 and VK6-A1-No26 transformed with Al construct (35S promoter—ALS W574 mutant—35S terminator). As controls, we used leaf segments of herbicide resistant natural ALS mutant of Camelina microcarpa that has broad resistance to class-2 herbicides and leaf segments of susceptible Camelina sativa. From the figure it can be clearly seen that leaf segments of transgenic plants are resistant to the herbicides, while non-transgenic Camelina sativa is susceptible.

[8] = system: non-transgenic susceptible Camelina sativa leaf segments; assay: In vitro leaf segment test, non-transgenic control; format: cell-based; conditions: media with 0.001, 0.01, 0.1, 1.0 mg/l herbicide, FIG. 13
From the text: as §3, §4

[9] = line A9.1 (VK14A9.1), Blane Creek
[10] = line A9.2 (VK14A9.4.2), Blane Creek
[11] = line A10 (VK14A10.16), Blane Creek
[12] = line ALS23.3 (VK10A2.3), T3, W574L

Row | Compound | Effect as compared to control [1] | Highest surviving concentration [1] | Effect as compared to control ([2]; line A3 (VK9A3.4.1), Calena) | Highest surviving concentration ([2]; line A3 (VK9A3.4.1), Calena) | Effect as compared to control [2, 9] | Highest surviving concentration [2, 9] | Effect as compared to control [2, 10] | Highest surviving concentration [2, 10] | Effect as compared to control ([3]; line A4 (VK9A4.4.2), Calena) | Highest surviving concentration ([3]; line A4 (VK9A4.4.2), Calena) | Effect as compared to control [3, 11] | Highest surviving concentration [3, 11] | spectrum of resistance of mutation W [4] | Effect as compared to control ([4]; line A2 (VK10A2.2), T1, W574L) | Highest surviving concentration ([4]; line A2 (VK10A2.2), T1, W574L) | Effect as compared to control [4, 12] | Highest surviving concentration [4, 12] | Effect as compared to control ([5]; line ALS7.3 (KK24A14.4)) | Highest surviving concentration ([5]; line ALS7.3 (KK24A14.4)) | Effect as compared to control ([5]; line ALS8.3 (KK18A8)) | other results
1 | COC(=O)c1ccccc1S(=O)(=O)NC(=O)Nc1nc(C)nc(OC)n1 [MSU, Metsulfuron-methyl] | 1 | 0.001 mg/L | 10 | 0.01 mg/L | 1 | 0.001 mg/L | 1 | 0.001 mg/L | 10 | 0.01 mg/L | 10 | 0.01 mg/L | less effective | 100 | 0.1 mg/L | 100 | 0.1 mg/L | 1 000 | 1.0 mg/L | 1 000 | Highest surviving concentration ([5]; line ALS8.3 (KK18A8)): 1.0 mg/L; increase in resistance as compared to non-transgenic control ([5]; lines bearing double mutations PW): 1 000; Effect as compared to control ([6]; line ALS 11.3 (VK10A5.3)): 100; Highest surviving concentration ([6]; line ALS 11.3 (VK10A5.3)): 0.1 mg/L; Effect as compared to control ([6]; line ALS22.3 (VK13A15.12)): 1 000; Highest surviving concentration ([6]; line ALS22.3 (VK13A15.12)): 1.0 mg/L; response of leaf segments to the herbicides [7]: resistant; response of leaf segments to the herbicides [8]: susceptible
2 | COc1nc(C)nc(NC(=O)NS(=O)(=O)c2ccccc2Cl)n1 [CSU, Chlorsulfuron] | 1 | 0.001 mg/L | 10 | 0.01 mg/L | 1 | 0.001 mg/L | 10 | 0.01 mg/L | 10 000 | 10 mg/L | 1 000 | 1.0 mg/L | good resistance | 10 000 | 10 mg/L | 1 000 | 1.0 mg/L | 10 000 | 10 mg/L | 10 000 | spectrum of resistance of mutation P [3]: specifically increased resistance; Highest surviving concentration ([5]; line ALS8.3 (KK18A8)): 10 mg/L; Effect as compared to control ([6]; line ALS 11.3 (VK10A5.3)): 10 000; Highest surviving concentration ([6]; line ALS 11.3 (VK10A5.3)): 10 mg/L; Effect as compared to control ([6]; line ALS22.3 (VK13A15.12)): 10 000; Highest surviving concentration ([6]; line ALS22.3 (VK13A15.12)): 10 mg/L; response of leaf segments to the herbicides [7]: resistant; response of leaf segments to the herbicides [8]: susceptible
3 | COCc1cnc(C2=NC(C)(C(C)C)C(=O)N2)c(C(=O)O)c1 (stereo not drawn) [IMI, Imazamox] | 1 | 0.01 mg/L | 1 000 | 10 mg/L | 100 | 1.0 mg/L | 1 000 | 10 mg/L | 10 | 0.1 mg/L | 10 | 0.1 mg/L | good resistance | 10 000 | 100 mg/L | 1 000 | 10 mg/L | 1 000 | 10 mg/L | 1 000 | spectrum of resistance of mutation A [2]: specifically increased resistance; Highest surviving concentration ([5]; line ALS8.3 (KK18A8)): 10 mg/L; Effect as compared to control ([6]; line ALS 11.3 (VK10A5.3)): 1 000; Highest surviving concentration ([6]; line ALS 11.3 (VK10A5.3)): 10 mg/L; Effect as compared to control ([6]; line ALS22.3 (VK13A15.12)): 1 000; Highest surviving concentration ([6]; line ALS22.3 (VK13A15.12)): 10 mg/L; response of leaf segments to the herbicides [7]: resistant; response of leaf segments to the herbicides [8]: susceptible
